“And” between values parts separate entries of the source, which are not always exact repeats. Equal entries are not always repeated.

For the assay, the system named is P. falciparum 3D7 growth, pLDH absorbance. The experiment in a line: blood-stage malaria parasite growth potency – strain 3D7, dose response (AID 2305).
Take `COC(=O)c1cc(NC(=O)Nc2ccc(Cn3ncc(N4CCCNCC4)c(Cl)c3=O)cc2)cc(C(=O)OC)c1`: the IC50 stood at 710 nM.

Turning to `CNCCNCc1ccc(-c2ccc(-c3nc4ccc(C(F)(F)F)cc4[nH]3)cc2)cc1`, the IC50 worked out at 310 nM. This IC50 is about 2.3-fold lower than that of the compound before.

`Cc1cc(C)cc(OCC(O)CN(Cc2cc(Cl)cc(Cl)c2)C(=O)Nc2ccc(Cl)cc2)c1` (stereo not drawn): the IC50 worked out at 810 nM.

For the compound `CC(=O)N[C@@H]1c2cc(C(C)=O)ccc2OC(C)(C)[C@@H]1O`, the IC50 is 980 nM.

In the case of `CS(=O)(=O)c1ccc(-c2cnc(N)c(-c3cccc(O)c3)c2)cc1`, the IC50 amounted to 690 nM.

As for `CCOc1ccc2c(NN=Cc3cccc(Cl)c3)cc(C)nc2c1`, the IC50 amounted to 860 nM.

`COc1ccc2cc(C(=O)Nc3ccc4c(c3)CCN(C3CCC3)CC4)ccc2c1` registered an IC50 of 840 nM.

With `COc1ccc2ncc(F)c(CCN3CC[C@H](NCc4cc5c(s4)CCCN5)[C@H](O)C3)c2n1`, the IC50 amounted to 960 nM.

In turn, `CCN(C)C(=O)n1ncc2c3c(N)nc(N)nc3ccc21` returned an IC50 of 180 nM.

In turn, `CCOC(=O)c1ccc(NC(=O)NNC(=O)c2ccc(CCN3CCC(c4nc(COCC(F)(F)F)c(-c5ccc(F)cc5)o4)CC3)cc2)cc1` displayed an IC50 of 570 nM.

Take `CCN(CC)C(=O)C1CCCN(c2cc(C)nc(Nc3ccc(Cl)cc3)n2)C1` (stereo not drawn): the IC50 came out at 720 nM.

Compound `O=C(CCc1ccccc1)N[C@H](Cc1c[nH]c2ccccc12)C(=O)N1CCC(NCc2ccc3c(c2)Cc2ccccc2-3)CC1` came in with an IC50 of 910 nM.

In turn, `CN(C)c1ccc(C=Cc2ccc3ccccc3n2)c(Cl)c1` displayed an IC50 of 440 nM.

In turn, `Nc1nc(N)c2c(ccc3c2ccn3C2CCCCC2)n1` returned an IC50 of 120 nM. Against the preceding compound, the IC50 is about 3.7-fold lower.

`Cc1ccccc1C1CCN(C2CCC(NC(=O)/C=C/c3ccc(C(F)(F)F)cc3F)CC2)CC1` (stereo not drawn) displayed an IC50 of 900 nM.

On to `O=S1c2ccccc2Sc2ccccc21`, for which the IC50 amounted to 170 nM. This IC50 lies about 5.3-fold lower than the previous one.

Consider `CC(C)CCNC(=O)c1cnc2c(O)cccc2c1Nc1cccc(NC(=O)c2ccc(F)cc2)c1`, for which the IC50 came out at 910 nM.

With `CC(C)CCCC(C)(C)NC[C@@H](O)[C@H](Cc1ccccc1)NC(=O)c1cccc(CCC2CC2)c1`, the IC50 turned out to be 800 nM.

Consider `CC(C)CNCc1ccc(-c2cccc(CNC3CCN(Cc4ccccc4)CC3)c2)cc1`, for which the half-inhibitory concentration (IC50) is 240 nM.

`CN1CCC(NCc2cccc(-c3ccc(S(=O)(=O)NCCc4ccccn4)c(F)c3)c2)CC1` came in with an IC50 of 920 nM. Against the preceding compound, the IC50 is about 3.8-fold higher.

For the compound `CO/C(=C\C=C\c1cc2cc(Cl)c(Cl)cc2[nH]1)C(=O)NCCCN1CCCC[C@H]1C`, the IC50 was 790 nM.

As for `O=c1c(NCCCN(Cc2ccc(F)cc2)c2ccccn2)c(NCc2cccnc2)c1=O`, the IC50 turned out to be 60 nM.

Turning to `CC(C)CC(=O)N1CCNC[C@@H]1C(=O)NC1CC1`, the IC50 amounted to 1090 nM.

In turn, `Cc1cnc(NCC2CCCCC2)nc1NCC(=O)Nc1ccccc1` came in with an IC50 of 710 nM.

Turning to `CC(C)c1cn2c3c(cc(C(=O)N[C@@H](Cc4ccccc4)[C@H](O)CNC4CCCCC4)cc13)N(C)S(=O)(=O)CC2`, the IC50 was determined as 30 nM.

With `CCC(CC)(CCC#N)CN(C[C@@H](O)[C@H](Cc1ccccc1)NC(=O)OC(C)(C)C)S(=O)(=O)c1ccc(OC)cc1`, the 50% inhibitory concentration (IC50) was determined as 1040 nM. This IC50 is about 35-fold higher than that of the compound before.

In turn, `Cc1ccccc1CN1CCCN(Cc2ccc(C(=O)Nc3ccc(Cl)cc3)cc2)CC1` registered an IC50 of 940 nM.

In turn, `CC1CCCN(Cc2cc(Cl)cc(Cl)c2O)C1` (stereo not drawn) displayed a concentration for half-maximal inhibition (IC50) of 930 nM.

`CCC1CCCCN1S(=O)(=O)c1ccc(NC(=O)c2cc(C)on2)cc1` (stereo not drawn): the IC50 stood at 1240 nM. The IC50 values of the last two compounds are within 1.5-fold of each other.

In turn, `Clc1ccc2nccc(N3CCC(CN4CCC(c5c[nH]c6ccccc56)CC4)CC3)c2c1` displayed an IC50 of 30 nM. This IC50 is about 41-fold lower than that of the compound before.

In turn, `Nc1nc(N)c2cc3ccc(OCc4ccccc4)cc3nc2n1` came in with an IC50 of 320 nM.

For the compound `COc1cc2nc(C)nc(Nc3ccc(Cc4ccccc4)cc3)c2cc1OC`, the IC50 stood at 730 nM.

With `COc1cc(F)c2ncc(Cl)c(CCN3CCC(NCc4ccc5c(n4)NC(=O)CS5)CC3)c2c1`, the IC50 turned out to be 480 nM.

Regarding `CCOc1ccc2nc(-c3ccccc3)cc(NN=Cc3ccncc3)c2c1`, the IC50 stood at 150 nM.

As to `Cc1cc(C)cc(OCC(O)CN(Cc2cc(Cl)cc(Cl)c2)C(=O)Nc2ccc([N+](=O)[O-])cc2)c1` (stereo not drawn), the IC50 is 800 nM.

Regarding `FC(F)(F)c1cccc(-c2cc(NCCCn3ccnc3)nc(-c3ccncc3)n2)c1`, the IC50 stood at 110 nM.

In turn, `O=C(Nc1ccc(OC2CCN(Cc3ccc(F)cc3)CC2)cc1)c1cccs1` showed an IC50 of 970 nM.

For `COc1cc(Cc2cnc(N)nc2N)c2ccsc2c1OC`, the IC50 was 1070 nM. This IC50 and that of the compound before are within 1.5-fold of each other.

In turn, `COc1ccc(N2CCN(CCCCNC(=O)c3ccc(NC(=O)c4ccc(Cl)c(Cl)c4)cc3)CC2)c(OC)c1` came in with an IC50 of 210 nM.

Take `OCCN1CCN(c2ccc(Nc3ccnc4cc5ccccc5cc34)cc2)CC1`: the IC50 was found to be 40 nM.

As for `c1cc(CNCCc2ccncc2)cc(-c2csc(-c3nc4ccccc4[nH]3)c2)c1`, the IC50 was 260 nM.

`COCc1nc(N)nc(N)c1-c1ccc(Cl)c(Cl)c1` displayed an IC50 of 1020 nM.

Turning to `N#Cc1ccc(N[C@@H](CC2CCCCC2)C(=O)NCc2cc(Cl)cc(Cl)c2)c2ccccc12`, the IC50 was 1100 nM.

`NC(=O)c1ccc(C(=O)Nc2cccc(-c3cccc(-c4nc5ccc(C(F)(F)F)cc5[nH]4)c3)c2)cc1` displayed an IC50 of 230 nM.

`CCOC(=O)NC1=NC(C)(C)N(OCc2cccc3c2ccc2ccccc23)C(NC(=O)OCC)=N1`: the IC50 was found to be 170 nM. This IC50 and that of the compound before are within 1.5-fold of each other.

As for `O=C(C=Cc1ccc(Cl)c(Cl)c1)NCCCCCN1CCC(CCNC(=O)c2ccc3c(c2)OCO3)CC1`, the IC50 was 690 nM.

Regarding `Cc1cc(=O)[nH]c(NC#N)n1`, the IC50 is 170 nM.

In the case of `COc1ccc(CNCCCCCCNCc2ccc(OC)c3ccccc23)c2ccccc12`, the IC50 stood at 580 nM.

`CC(CN1CCN(C)CC1)C(=O)Nc1ccc(-c2ccc(-c3nc4ccccc4[nH]3)s2)cc1` (stereo not drawn) returned an IC50 of 640 nM.

With `N#Cc1ccc(-c2ccc(C(=O)NCCCCN3CCC(c4cn(CCCO)c5ccccc45)CC3)cc2)cc1`, the IC50 is 750 nM.

As to `COc1ccc(O)cc1Cc1cnc2nc(N)nc(N)c2c1C`, the IC50 came to 10 nM.

`O=C(Nc1cccc(CN2CCCN(Cc3ccc(O)cc3)CC2)c1)c1ccc(Br)cc1` showed an IC50 of 800 nM.

The compound `O=C(c1cc(C(F)(F)F)cc(C(F)(F)F)c1)N1CC[C@H](CCN2CCC3(CC2)C(=O)NCN3c2ccccc2)C[C@H]1Cc1ccc(Cl)c(Cl)c1` showed an IC50 of 660 nM.

On to `Cc1cc(-c2nc3cncc(-c4cccc(CN5CCCC5Cc5cccnc5)c4)c3n2C)nn1C` (stereo not drawn), for which the IC50 is 130 nM.

Compound `CCc1ccc(CN2CCC(CNC(=O)c3cc(-c4cccc(Cl)c4)cs3)C2)cc1` (stereo not drawn) had an IC50 of 1110 nM. This IC50 is about 8.5-fold higher than that of the compound before.

Take `O=C(Nc1ccc(-c2ccc(-c3nc4ccc(C(F)(F)F)cc4[nH]3)s2)cc1)c1ccoc1`: the half-inhibitory concentration (IC50) was 850 nM.

`COc1ccc(N2C(N)=NC(N)=NC2(C)C)cc1` gave an IC50 of 110 nM.

For `Cc1cc(OCCCN=C(N)c2ccc3ccccc3c2)c(C(C)C)cc1Cl`, the IC50 came out at 970 nM.

For the compound `CC(C)CCN1CCCN(Cc2cccc(NC(=O)c3cc4ccccc4s3)c2)CC1`, the IC50 was 920 nM.

On to `COc1cc(NC(=O)N2CCOC(CCN3CCC4(CCc5ccccc54)CC3)(c3ccc(Cl)c(Cl)c3)C2)cc(OC)c1OC` (stereo not drawn), for which the IC50 was 160 nM.

`CC(C)NCC(O)COc1ccc(Cc2ccc(OCC(O)CNC(C)C)cc2)cc1` (stereo not drawn) returned an IC50 of 650 nM.

For `NC(=NCC1CC1c1ccccc1)c1cccc(C(N)=NCC2CC2c2ccccc2)n1` (stereo not drawn), the IC50 turned out to be 1760 nM.

Compound `COc1cccc(CNC(=O)c2cc(CNCc3ccccc3)ccc2-c2cccc(CNCc3ccc(-c4ccccc4)cc3)c2)c1` yielded an IC50 of 850 nM.

Turning to `Oc1ccc2nc(NCCCc3ccccc3)nc(NCCCc3ccccc3)c2c1`, the IC50 came to 400 nM.

In turn, `C#CCCC(=O)Nc1cccc(-c2cccc(-c3nc4ccc(C(F)(F)F)cc4[nH]3)c2)c1` registered an IC50 of 810 nM.

On to `CCc1c(CCNCCCCCCNCc2ccc3c(c2CC)OCO3)ccc(OC)c1OC`, for which the IC50 turned out to be 250 nM.

As to `COc1ccccc1-c1[nH]c2ccccc2c1CN1CCC(c2c(C)cccc2C)CC1`, the IC50 stood at 920 nM.

`O=C(Nc1ccc(OC2CCN(Cc3ccccc3)C2)c(Cl)c1)c1ccco1` (stereo not drawn) gave an IC50 of 410 nM.

Consider `O=C(NCCc1ccccc1)N(Cc1ccccc1-c1ccc(CNC2CCCC2)cc1)C1CCN(Cc2ccccc2)CC1`, for which the IC50 turned out to be 1130 nM.

Compound `CC(Cc1ccc(OC2CCCCC2)cc1)NCC(O)c1cccc(Cl)c1` (stereo not drawn) had an IC50 of 140 nM.

`CCN(CC)C(=NCCCCCCN=C(/N=C(/N)Nc1ccc(Br)cc1)N(CC)CC)/N=C(/N)Nc1ccc(Br)cc1` displayed an IC50 of 380 nM.

`Fc1ccc2nc(-c3cccc(-c4ccc(CN5CCN(c6ccncc6)CC5)cc4)c3)[nH]c2c1` gave an IC50 of 210 nM.

The compound `Cc1onc(-c2ccccc2Cl)c1C(=O)Nc1cc(Cl)c(Cl)cc1Cl` yielded an IC50 of 1180 nM.

The compound `O=C(NCc1ccc(Cl)c(Cl)c1)c1ccc(-c2nc3cc(F)c(F)cc3[nH]2)cc1` had an IC50 of 1050 nM.

As for `CC(C)c1ccc2oc(-c3ccc(NC(=O)c4ccc([N+](=O)[O-])o4)cc3)nc2c1`, the IC50 came out at 340 nM.

The compound `NC(=O)Nc1ccc2cn[nH]c2c1` returned an IC50 of 210 nM. Against the preceding compound, the IC50 is about 1.6-fold lower.

`CCCCCN1CCCC(CNS(=O)(=O)c2cccc(C(=O)Nc3ccc(C(F)(F)F)cc3)c2)C1` (stereo not drawn) yielded an IC50 of 830 nM.

Take `O=C(C=Cc1ccccc1C(F)(F)F)NC1CCC(CN2CCC(c3c[nH]c4ccccc34)CC2)CC1` (stereo not drawn): the half-maximal inhibitory concentration (IC50) was 900 nM and 680 nM.

`COc1ccc(CNc2nc(NCCc3ccccc3)c3cc(OC)c(OC)cc3n2)cc1OC` showed an IC50 of 180 nM.

In turn, `Cc1cc2ccc(/C=C/C(=O)NC3CCC(CCN4CCc5ccc(C#N)cc5CC4)CC3)cc2[nH]1` (stereo not drawn) displayed an IC50 of 940 nM. This IC50 is about 5.2-fold higher than that of the compound before.

Compound `CCN(CC)CCCC(C)Nc1c(-c2ccc(OC)cc2)cnc2ccccc12` (stereo not drawn) displayed an IC50 of 890 nM.

Compound `Cc1ccc(C)c(S(=O)(=O)Nc2ccc(Br)cc2C(=O)Nc2cccc(C(F)(F)F)c2)c1` displayed an IC50 of 1210 nM.

The compound `COc1ccc(CNC2Cc3ccccc3C2)cc1-c1ccc(OC)c(S(=O)(=O)NCCN2CCCC2)c1` had an IC50 of 770 nM.

With `Cc1cc(Nc2ccc(C(C)(C)C)cc2)c2[nH]ncc2n1`, the IC50 stood at 1160 nM.

As to `CCCCCCCc1c(C)[nH]c2c(OC)cccc2c1=O`, the IC50 amounted to 920 nM.

With `CCn1ccc2c(N3CCCS3(=O)=O)cc(C(=O)N[C@@H](Cc3ccccc3)[C@H](O)CNC(C)(C)CCCC(C)C)cc21`, the 50% inhibitory concentration (IC50) worked out at 490 nM.

In turn, `N#Cc1ccc(-c2ccc(C(=O)NCCCCN3CCC(c4cc(Br)c5c(c4O)CCCC5)CC3)cc2)cc1` yielded a 50% inhibitory concentration (IC50) of 150 nM.

For `CN(C)CCOc1ccc(-c2cc(-c3ccnc(N)n3)c(-c3ccc(Cl)c(O)c3)o2)cc1`, the IC50 was 980 nM. Against the preceding compound, the IC50 is about 6.5-fold higher.

(Values after PubChem BioAssay AID2305 (GlaxoSmithKline (GSK), 2010).)
